Structures are written as SMILES. The source made the active and inactive calls. The rule behind the calls is not given here.

This is an account of results in ChEMBL document CHEMBL3997845, “Identification of a novel hormone sensitive lipase inhibitor with a reduced potential of reactive metabolites formation” (Bioorg Med Chem, 2017).

Series [1] concerns Liver. Briefly: Drug level in human liver microsomes treated with 2-(4-(5-(trifluoromethyl)pyridin-2-yloxy)benzyloxy)phenylboronic acid at 500 uM after 60 mins in presence of [13C2,15N-Gly]GSH and NADPH generating system by LC-MS/MS analysis. Format: ADME, microsome. As to conditions: 1 h. (Microsomes from liver hold many membrane-bound enzymes, among them those of drug oxidation.)

Series [2] can be described thus: Metabolic stability in rat liver microsomes assessed as parent compound remaining at 1 uM after 30 mins in presence of NADPH generating system by LC-MS/MS analysis. Format: ADME, microsome. The note with it: read-out: Stability.
Series [3] concerns Rattus norvegicus. As to the kind of experiment: Antilipolytic activity in Wistar rat assessed as reduction in plasma glycerol AUC (0 to 7 hrs) at 3 mg/kg, po relative to control. It is filed as functional. Also on record: scale not given: the % may be the effect or the level left.
A short description of series [4]: Cmax in Wistar rat at 3 mg/kg, po by LC-MS/MS analysis. It is filed as ADME, organism-based. As to conditions: in vivo. Set-up: dose 3 mg/kg, route oral.
Series [5] can be described thus: AUC (0 to 7 hrs) in Wistar rat at 3 mg/kg, po by LC-MS/MS analysis. It is filed as ADME, organism-based. Set-up: dose 3 mg/kg, time < 7 hr, route oral. As to conditions: in vivo.
Series [6] relates to Rattus norvegicus. As to the kind of experiment: Antilipolytic activity in Wistar rat assessed as reduction in plasma glycerol AUC (0 to 7 hrs) at 10 mg/kg, po. It is filed as functional, organism-based.

Regarding `O=C(O)CNC(=O)C1CSC(c2ccc(Oc3ccc(C(F)(F)F)cn3)cc2)N1` (stereo unspecified), the Drug metabolism result in series [1] is recorded as “Metabolite_Detected”.

Turning to `O=C(Nc1ccc(Cl)cc1B(O)O)c1ccc(Oc2ccc(C(F)(F)F)cc2)nc1`, in series [2], the remaining at 0.5 h, 1 µM was found to be 81%. The Activity in series [3] turned out to be 17%. The concentration in series [4] peaked (Cmax) at 3350 ng/mL. The molecule also returned an AUC(0-t) at 7 h in series [5] of 19600 ng·h/mL.

Regarding `O=C(Oc1ccc(Oc2ccc(C(F)(F)F)cn2)cc1)N1CCC(O)CC1`, in series [6], the result was Active.

In general, Cmax refers to the maximum level reached in the sampled fluid or tissue. As a reminder, the AUC(0-t) is exposure summed from dosing to a finite time, without extrapolation to infinity.
